This note sets out measurements from PubChem BioAssay (NCI).

Molecules are shown by their SMILES.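 How tested: cells in 96-well plates exposed to compound for 48 hours at five concentrations. GI50 is the concentration that inhibits growth by half. TGI marks complete inhibition of growth.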

Among the test systems are 786-0 renal; U251 CNS; SNB-75 CNS; CCRF-CEM leukemia; BT-549 breast; MCF7 breast; ACHN renal; HCT-15 colon; HOP-62 NSCLC; TK-10 renal; OVCAR-5 ovarian; NCI-H522 lung; HOP-92 NSCLC; HCC-2998 colon; EKVX NSCLC; MDA-MB-231 breast; NCI-H460 lung; A549 NSCLC; SNB-19 CNS; MOLT-4 leukemia; SK-OV-3 ovarian; KM12 colon; OVCAR-4 ovarian; M14 melanoma; SK-MEL-28 melanoma; NCI-H23 lung; SW-620 colon; SN12C renal; UACC-62 melanoma; OVCAR-8 ovarian; PC-3 prostate; HT29 colon; SF-539 CNS; COLO 205 colon; IGROV1 ovarian; NCI/ADR-RES ovarian; CAKI-1 renal; K-562 leukemia; SK-MEL-5 melanoma; RPMI-8226 leukemia; MDA-MB-435; SK-MEL-2 melanoma; T-47D breast; SR leukemia; MALME-3M melanoma; SF-268 CNS; RXF 393 renal.

What all share (test): NCI-60 cell line screen, 48 h

With `Nc1ncnc2nc(-c3ccc(C[P+](c4ccccc4)(c4ccccc4)c4ccccc4)cc3)[nH]c12`, the values for the GI50 in the assay with 786-0 renal, in the assay with U251 CNS and in the assay with SNB-75 CNS were 48.2 µM, 32.7 µM and 57.7 µM, respectively.

Turning to `COc1cccc(-c2cc(=O)c3cc(N)ccc3[nH]2)c1`, the TGI with CCRF-CEM leukemia, with BT-549 breast, in the assay with MCF7 breast, in the assay on ACHN renal, in the assay on HCT-15 colon and in the assay on 786-0 renal was above 100 µM in each case. In addition, the TGI is above 100 µM with HOP-62 NSCLC; above 100 µM in the assay on TK-10 renal; above 100 µM in the assay on OVCAR-5 ovarian; above 100 µM with U251 CNS; 7.56 µM in the assay with NCI-H522 lung; 59.7 µM in the assay with HOP-92 NSCLC. The TGI in the assay on HCC-2998 colon is 48.6 µM; with EKVX NSCLC, above 100 µM; in the assay on MDA-MB-231 breast, above 100 µM; in the assay on NCI-H460 lung, above 100 µM; in the assay with A549 NSCLC, above 100 µM; in the assay with SNB-19 CNS, above 100 µM. The TGI in the assay with MOLT-4 leukemia was above 100 µM; in the assay on SK-OV-3 ovarian, 6.79 µM; with KM12 colon it was above 100 µM; in the assay on OVCAR-4 ovarian, above 100 µM; in the assay with M14 melanoma, above 100 µM; with SK-MEL-28 melanoma, above 100 µM. The TGI with NCI-H23 lung, with SW-620 colon, with SNB-75 CNS, with SN12C renal, with UACC-62 melanoma and in the assay with OVCAR-8 ovarian was above 100 µM throughout. Also, the TGI with PC-3 prostate is above 100 µM; in the assay on HT29 colon it was 18 µM; in the assay on SF-539 CNS, 5.2 µM; in the assay on COLO 205 colon, above 100 µM; with IGROV1 ovarian, above 100 µM; in the assay with NCI/ADR-RES ovarian, 11.9 µM. Further, in the assay on OVCAR-4 ovarian, the GI50 is 82.3 µM.

For `O=P(O)(Cc1ccccc1)OCC1(O)OCC(O)C(O)C1O` (stereo not given), the TGI with CAKI-1 renal, with K-562 leukemia, with MCF7 breast, in the assay with ACHN renal, in the assay on 786-0 renal and with HOP-62 NSCLC was above 10 µM in each case. Besides, the TGI in the assay on SK-MEL-5 melanoma, in the assay on OVCAR-5 ovarian, with U251 CNS, with RPMI-8226 leukemia, in the assay on MDA-MB-435 and with SK-MEL-2 melanoma was above 10 µM throughout. Besides, the TGI in the assay on NCI-H460 lung, with T-47D breast, with A549 NSCLC, with SK-OV-3 ovarian, in the assay with SR leukemia and with OVCAR-4 ovarian was above 10 µM in each case. For the same molecule, the TGI in the assay on M14 melanoma, in the assay on MALME-3M melanoma, in the assay on SK-MEL-28 melanoma, with NCI-H23 lung, in the assay with SW-620 colon and in the assay on SNB-75 CNS was above 10 µM each time. Further, the TGI in the assay on SF-268 CNS, in the assay with RXF 393 renal, in the assay with UACC-62 melanoma, in the assay on COLO 205 colon, in the assay on IGROV1 ovarian and in the assay on NCI/ADR-RES ovarian was above 10 µM each time.
